One series concerns monoamino-oxidase. The note with it: generally known; cited from earlier work.
The subject of another series is cabbage moth eggs. The experiment in a line: prevention of hatching of cabbage moth eggs (immersion, evaluation four days after treatment). Type of series: in vivo. To be noted: Mamestra brassicae, 96 h; for inhibition at 1 % / inhibition at 0.1 %: read-out: prevention of hatching. The method, then: The compounds to be used according to the invention were used as aqueous solutions of the salts or as aqueous emulsions of the bases formulated as emulsion concentrates at the desired concentration. The same procedure was followed with the comparison agents trans-2-phenylcyclopropyl aminosulfate and 1-isonicotinyl-2-isopropyl hydrazine phosphate; in the case of isonicotinic acid-2-[2-(benzylcarbamoyl)-ethyl]-hydrazide, the compound was dissolved in acetone and diluted to the desired concentration with water.
The criterion for the evaluation of action was the percentual prevention of hatching in comparison with untreated eggs.

The subject of series [1] is cabbage moth (Plutella maculipennis). The experiment in a line: feed damage on sprayed potted mustard seedlings bearing eggs of the cabbage moth (Plutella maculipennis). Type of series: in vivo. To be noted: vs untreated plants, 7 days. An excerpt:
The compounds to be used according to the invention were used as aqueous solutions of the salts or as aqueous emulsions of the bases formulated as emulsion concentrates at the desired concentration. The same procedure was followed for the comparison agents trans-2-phenylcyclopropyl aminosulfate and 1-isonicotinyl-2-isopropyl hydrazine phosphate.
After the treatment the pots were set up in aerated glass cylinders for seven days.
The criterion for evaluation of the action was feed damage on the treated plants in comparison with the feed damage on untreated plants.

Series [2] has as its system Egyptian cotton moth eggs. The experiment in a line: prevention of hatching of Egyptian cotton moth eggs (immersion, evaluation four days after treatment). Type of series: in vivo, Spodoptera littoratis (Egyptian cotton moth). To be noted: 96 h. As for the experimental part:
The compounds to be used according to the invention were aqueous solutions of the salts or aqueous emulsions of the baes formulated as emulsion concentrates at the desired concentration. The same procedure was followed with the comparison agents trans-2-phenylcyclopropyl aminosulfate and 1-isonicotinyl-2-isopropyl hydrazine phosphate; in the case of isonicotinic acid-2-[2-(benzylcarbamoyl)-ethyl]hydrazide, the compound was dissolved in acetone and diluted with water to the desired concentration.
The criterion for evaluation of the action was the percentual prevention of batching in comparison with untreated eggs.

Series [3] in a line: acute oral toxicity, mouse. To be noted: in vivo, mouse p.o.
Setting [4] is: read-out: prevention of batching.
Where [5] appears, read: substance concentration 1.0%, vs untreated eggs, 4 days.
Where [6] appears, read: substance concentration 1.0 (head "(5)"), vs untreated eggs, 4 days, read-out: prevention of hatching.
The mark [7] stands for this setting: substance concentration 0.1 (head "(5)"), vs untreated eggs, 4 days, read-out: prevention of hatching.
[8] abbreviates: substance concentration 0.04 (head "(5)"), vs untreated eggs, 4 days, read-out: prevention of hatching.
Where [9] appears, read: substance concentration 0.1%, vs untreated eggs, 4 days.

These results are taken from US4156017A, “Pesticides” (Schering Aktiengesellschaft, priority 1977, dated 1979).

By LD50 is commonly meant the dose expected to kill half of the subjects tested.

Where two headings read alike, the source gives them in different places.

As for `N[C@@H]1C[C@H]1c1ccccc1.O=S(=O)(O)O` (relative stereo) [trans-2-Phenylcyclopropyl aminosulfate, trans-2-phenylcyclopropylamine sulfate, reference compound], in the series on monoamino-oxidase, the inhibition of monoamino-oxidase entry is “inhibitors of monoamino-oxidase”. Besides, the inhibition at 1 % (in the series on cabbage moth eggs; in series [2] (setting [4])) was 0% throughout. For the same compound, in series [1] (substance concentration 0.1%), the feed damage is on record as 100%.

Take `CC(C)NNC(=O)c1ccncc1` [1-isonicotinyl-2-isopropylhydrazine phosphate, reference compound]: in the series on monoamino-oxidase, the inhibition of monoamino-oxidase entry was “inhibitors of monoamino-oxidase”. Besides, the inhibition at 1 % (in the series with cabbage moth eggs (setting [5]); in series [2] (setting [6])) was 0% in each case. In series [1] (substance concentration 0.1%), this compound yielded a feed damage of 100%.

`C#CCN(C)Cc1ccc(Cl)cc1` [Compound 1, N-(4-chlorobenzyl)-N-methyl-2-propinylamine] showed an inhibition at 0.06 % in the series on cabbage moth eggs (substance concentration 0.06%, vs untreated eggs, 4 days) of 100%. For the same compound, in series [1] (substance concentration 0.05%), the feed damage turned out to be 0%. In addition, in series [2] (substance concentration 0.02 (head "(5)"), vs untreated eggs, 4 days), the inhibition at 0.02 % was found to be 100%.

For the compound `C#CCN(C)Cc1ccc(Cl)cc1` [Compound 2, 4-Chlorobenzyl-methyl-2-propinyl ammonium chloride], the inhibition at 0.1 % in series [2] (setting [7]) was 100%.

As to `C#CCN(C)Cc1ccccc1` [Compound 3, N-Benzyl-N-methyl-2-propinylamine], the inhibition of monoamino-oxidase result in the series with monoamino-oxidase is “inhibitors of monoamino-oxidase”. Moreover, the inhibition at 0.1 % in the series with cabbage moth eggs was 100%. In series [3], the LD50 was 700 mg/kg. Also, the feed damage in series [1] (substance concentration 0.05%) worked out at 0%. The inhibition at 0.04 % in series [2] (setting [4]) stood at 100%.

In the case of `C#CCN(C)Cc1ccccc1Cl` [Compound 4, N-(2-chlorobenzyl)-N-methyl-2-propinylamine], in series [3], the LD50 amounted to 305 mg/kg. Moreover, in series [2] (setting [7]), the inhibition at 0.1 % was 100%.

For `C#CCN(C)Cc1cccc(Cl)c1` [Compound 5, N-(3-chlorobenzyl)-N-methyl-2-propinylamine], the inhibition at 0.1 % in series [2] (setting [7]) stood at 100%.

For the compound `C#CCN(C)Cc1ccc(Cl)c(Cl)c1` [Compound 6, N-(3,4-dichlorobenzyl)-N-methyl-2-propinylamine], in series [2] (setting [8]), the inhibition at 0.04 % is 100%.

On to `C#CCN(C)Cc1ccc(Cl)cc1Cl` [Compound 7, N-(2,4-dichlorobenzyl)-N-methyl-2-propinylamine], for which the inhibition at 0.1 % in the series on cabbage moth eggs (setting [9]) is 100%. Further, the inhibition at 0.04 % in series [2] (setting [8]) was 100%.

Regarding `C#CCN(C)Cc1cccc(OC)c1` [Compound 8, N-(3-methoxybenzyl)-N-methyl-2-propinylamine], the inhibition at 0.1 % in series [2] (setting [7]) was 100%.

As for `C#CCN(C)Cc1ccccc1` [Compound 9, Benzyl-methyl-2-propinyl-ammonium-chloride], in series [2] (setting [4]), the inhibition at 0.1 % worked out at 100%.

In the case of `C#CCN(C)Cc1ccccc1Cl` [Compound 10, 2-Chlorobenzyl-methyl-2-propinyl-ammonium chloride], in the series on cabbage moth eggs (setting [9]), the inhibition at 0.1 % was determined as 100%. Besides, in series [2] (setting [8]), the inhibition at 0.04 % was found to be 80%.

On to `C#CCN(C)Cc1ccc(Cl)cc1Cl` [Compound 12, 2,4-Dichlorobenzyl-methyl-2-propinyl-ammonium chloride], for which, in series [2] (setting [7]), the inhibition at 0.1 % was found to be 100%.

For the compound `C#CCN(C)Cc1cccc(OC)c1` [Compound 13, 3-Methoxybenzyl-methyl-2-propinyl-ammonium chloride], the inhibition at 0.04 % in series [2] (setting [8]) came out at 70%.

On to `C#CCN(C)Cc1ccc(Cl)c(Cl)c1` [Compound 14, 3,4-Dichlorobenzyl-methyl-2-propinyl-ammonium chloride], for which the inhibition at 0.08 % with cabbage moth eggs (substance concentration 0.08%, vs untreated eggs, 4 days) is 100%. For the same compound, the feed damage in series [1] (substance concentration 0.05%) was 0%.

Regarding `O=C(CCNNC(=O)c1ccncc1)NCc1ccccc1` [Isonicotinic acid-2-[2-(benzylcarbamoyl)-ethyl]-hydrazide, reference compound], the inhibition of monoamino-oxidase entry with monoamino-oxidase is “inhibitors of monoamino-oxidase”. The inhibition at 1 % (with cabbage moth eggs (setting [5]); in series [2] (setting [6])) was 0% throughout.
